In brackets after ≈: the same amount, converted by molar mass. Activity calls are given as the source filed them. No cut-off for these calls is given here.
Experiments:
Candida albicans [1] = test: Antimicrobial activity against Candida albicans ATCC 90028 by CLSI method; type: functional, organism-based
Aspergillus fumigatus [2] = test: Antimicrobial activity against Aspergillus fumigatus ATCC 90906 by CLSI method; type: functional, organism-based
Vero [3] = test: Cytotoxicity against african green monkey Vero cell after 48 hrs by Neutral Red dye; type: cell-based, Chlorocebus sabaeus
SK-OV-3 [4] = test: Cytotoxicity against human SKOV3 cells after 48 hrs by Neutral Red dye; type: functional, cell-based; settings: SK-OV-3, 48 h
KB [5] = test: Cytotoxicity against human KB cells after 48 hrs by Neutral Red dye; type: functional, cell-based
BT-549 [6] = test: Cytotoxicity against human BT549 cells after 48 hrs by Neutral Red dye; type: functional, cell-based; settings: BT-549, 48 h
Plasmodium falciparum [7] = test: Antiplasmodial activity against chloroquine-resistant Plasmodium falciparum W2 after 72 hrs by LDH assay; type: functional, organism-based
Plasmodium falciparum [8] = test: Antiplasmodial activity against chloroquine-sensitive Plasmodium falciparum D6 after 72 hrs by LDH assay; type: functional, organism-based
[9] = Selectivity index, ratio of IC50 for african green monkey (Cercopithecus aethiops) Vero cells to IC50 for chloroquine-resistant Plasmodium falciparum W2; type: toxicity, cell-based; settings: read-out: Ratio IC50
[10] = Cytotoxicity against pig LLC-PK11 cells after 48 hrs by Neutral Red dye; type: cell-based; settings: Sus scrofa, LLC-PK11, 48 h
Staphylococcus aureus [11] = test: Antimicrobial activity against methicillin-resistant Staphylococcus aureus ATCC 33591 at 20 ug/ml by CLSI method; type: functional, organism-based
SK-MEL [12] = test: Cytotoxicity against human SK-MEL cells after 48 hrs by Neutral Red dye; type: functional, cell-based
[13] = Selectivity index, ratio of IC50 for african green monkey (Cercopithecus aethiops) Vero cells to IC50 for chloroquine-sensitive Plasmodium falciparum D6; type: toxicity, cell-based; settings: read-out: Ratio IC50
Staphylococcus aureus [14] = test: Antimicrobial activity against Staphylococcus aureus ATCC 29213 at 20 ug/ml by CLSI method; type: functional, organism-based
Staphylococcus aureus [15] = test: Antimicrobial activity against Staphylococcus aureus ATCC 29213 by CLSI method; type: functional, organism-based
KB [16] = test: Cytotoxicity against human KB cells at 10 ug/ml after 48 hrs by Neutral Red dye; type: functional, cell-based
SK-MEL [17] = test: Cytotoxicity against human SK-MEL cells at 10 ug/ml after 48 hrs by Neutral Red dye; type: functional, cell-based
Vero [18] = test: Cytotoxicity against african green monkey Vero cell at 10 ug/ml after 48 hrs by Neutral Red dye; type: cell-based, Chlorocebus sabaeus
[19] = Cytotoxicity against pig LLC-PK11 cells at 10 ug/ml after 48 hrs by Neutral Red dye; type: cell-based, Sus scrofa
SK-OV-3 [20] = test: Cytotoxicity against human SKOV3 cells at 10 ug/ml after 48 hrs by Neutral Red dye; type: functional, cell-based
Aspergillus fumigatus [21] = test: Antimicrobial activity against Aspergillus fumigatus ATCC 90906 at 20 ug/ml by CLSI method; type: functional, organism-based
Staphylococcus aureus [22] = test: Antimicrobial activity against methicillin-resistant Staphylococcus aureus ATCC 33591 by CLSI method; type: functional, organism-based
BT-549 [23] = test: Cytotoxicity against human BT549 cells at 10 ug/ml after 48 hrs by Neutral Red dye; type: functional, cell-based
Candida albicans [24] = test: Antimicrobial activity against Candida albicans ATCC 90028 at 20 ug/ml by CLSI method; type: functional, organism-based
[25] = Chlorocebus sabaeus, Vero, 48 h, read-out: IC50

C[C@@H]1[C@H](O)[C@@H](C)/C=C/C=C/C=C/C=C/C=C/C=C/C=C/[C@H](O[C@@H]2O[C@H](C)[C@@H](O)[C@H](N)[C@@H]2O)C[C@@H]2O[C@](O)(C[C@@H](O)C[C@@H](O)[C@H](O)CC[C@@H](O)C[C@@H](O)CC(=O)O[C@H]1C)C[C@H](O)[C@H]2C(=O)O [AMPHOTERICIN B]
IC50 (Candida albicans [1]): 0.42 µg/mL (≈ 0.455 µM) | MIC (Candida albicans [1]): 2.5 µg/mL (≈ 2.71 µM) | IC50 (Aspergillus fumigatus [2]): 1.16 µg/mL (≈ 1.26 µM) | MIC (Aspergillus fumigatus [2]): 2.5 µg/mL (≈ 2.71 µM)

C[C@@H]1CC[C@H]2[C@@H](C)C(=O)O[C@@H]3O[C@@]4(C)CC[C@@H]1[C@]32OO4 [ARTEMISININ]
IC50 (Vero [3]; vero): Non-toxic

CCN(CC)CCCC(C)Nc1ccnc2cc(Cl)ccc12 (centres undefined) [CHLOROQUINE]
IC50 (Vero [3]; vero): Non-toxic

COc1cccc2c1C(=O)c1c(O)c3c(c(O)c1C2=O)C[C@@](O)(C(=O)CO)C[C@@H]3O[C@H]1C[C@H](N)[C@H](O)[C@H](C)O1 [DOXORUBICIN]
IC50 (Vero [3]; [25]): > 5 µg/mL | IC50 (SK-OV-3 [4]): 1.2 µg/mL (≈ 2.21 µM) | IC50 (KB [5]): 1.35 µg/mL (≈ 2.48 µM) | IC50 (BT-549 [6]): 0.8 µg/mL (≈ 1.47 µM)

COn1cc(-c2ccccc2)c(O)c([C@@H]2O[C@H]([C@H](C)CCOC(C)=O)[C@@H](C)C[C@H]2C)c1=O
IC50 (Vero [3]; vero): Non-toxic | IC50 (Plasmodium falciparum [7]): Not Active | IC50 (Plasmodium falciparum [8]): Not Active

CC[C@@H](C)[C@H]1O[C@@H](c2c(O)c(-c3ccccc3)cn(O)c2=O)[C@H](C)C[C@@H]1C [SEPTORIAMYCIN A]
selectivity ratio [9]: 6.5 | IC50 (Vero [3]; [25]): 1.3 µg/mL (≈ 3.5 µM) | IC50 [10]: 1.65 µg/mL (≈ 4.44 µM) | IC50 (SK-OV-3 [4]): 2.6 µg/mL (≈ 7 µM) | IC50 (Staphylococcus aureus [11]): Not Active | MIC (Staphylococcus aureus [11]): inactive | IC50 (KB [5]): 5 µg/mL (≈ 13.5 µM) | IC50 (Candida albicans [1]): 12.1 µg/mL (≈ 32.5 µM) | IC50 (BT-549 [6]): 1.65 µg/mL (≈ 4.44 µM) | IC50 (SK-MEL [12]): 1.5 µg/mL (≈ 4.04 µM) | selectivity ratio [13]: 3.9 | IC50 (Staphylococcus aureus [14]): Not Active | MIC (Staphylococcus aureus [14]): inactive | IC50 (Aspergillus fumigatus [2]): 8.76 µg/mL (≈ 23.6 µM) | IC50 (Staphylococcus aureus [15]): Not Active | MIC (Staphylococcus aureus [15]): inactive

COn1cc(-c2ccccc2)c(O)c([C@@H]2O[C@H]([C@H](C)CCO)[C@@H](C)C[C@H]2C)c1=O
IC50 (Vero [3]; vero): Non-toxic | IC50 (Plasmodium falciparum [7]): Not Active | IC50 (Plasmodium falciparum [8]): Not Active

CC[C@@H](C)[C@H]1O[C@@H](c2c(O)c(-c3ccccc3)cn(OC)c2=O)[C@H](C)C[C@@H]1C
IC50 (KB [16]): Not Active | IC50 (Vero [3]; vero): Non-toxic | IC50 (SK-MEL [17]): Not Active | IC50 (Vero [18]): Not Active | IC50 [19]: Not Active | IC50 (SK-OV-3 [20]): Not Active | IC50 (Aspergillus fumigatus [21]): Not Active | MIC (Aspergillus fumigatus [21]): inactive | IC50 (Plasmodium falciparum [7]): Not Active | IC50 (Staphylococcus aureus [22]): 2.99 µg/mL (≈ 7.76 µM) | MIC (Staphylococcus aureus [22]): 5 µg/mL (≈ 13 µM) | IC50 (Plasmodium falciparum [8]): Not Active | IC50 (BT-549 [23]): Not Active | IC50 (Candida albicans [24]): Not Active | MIC (Candida albicans [24]): inactive | MIC (Staphylococcus aureus [15]; Staphylococcus aureus, ATCC 29213): 5 µg/mL (≈ 13 µM) | IC50 (Staphylococcus aureus [15]; Staphylococcus aureus, ATCC 29213, read-out: IC50): 2.79 µg/mL (≈ 7.24 µM)

Reference: ChEMBL document CHEMBL1177737, “Bioactive 1,4-dihydroxy-5-phenyl-2-pyridinone alkaloids from Septoria pistaciarum” (J Nat Prod, 2010)
